Laboratory results taken from patent EP2975033A1, “Improved cysteine-protease inhibitors” (Universitat Jaume I, priority 2014, dated 2016).
Values after ≈ are worked out from the molar mass of the structure shown. Like-named read-outs stand apart in the source and are kept apart here.

Legend:
Cathepsin L (human) = molecular target: T1, Cathepsin L (human) (Homo sapiens, UniProt P07711); experiment: Protease assay, fluorogenic substrate Z-Phe-Arg-AMC: Cathepsin L; type: biochemical
T1 construct: Cathepsin L (human liver) Calbiochem; purchased Calbiochem; host or cells: human liver (tissue-derived)
Excerpt: (§1) 2.1.1. Protease Assays as shown in tables 1 and 2: Cathepsin L (human), Cathepsin B (human), Rhodesain (Trypanosoma brucei rhodesiense), Falcipain 2 (Plasmodium falciparum)
(§2) Enzyme assays used to identify inhibitors of the target cysteine proteases. The effect is detected measuring fluorescence increase due to hydrolysis of fluorogenic substrates by the target enzymes in absence and presence of potential inhibitors.
(§3) • a. Proteins (enzymes): • Cathepsin L (human liver) Calbiochem • Cathepsin B (human liver) Calbiochem • Rhodesain: recombinantly expressed according to ref.: Caffrey, C. R.; Hansell, E.; Lucas, K. D.; Brinen, L. S.; Hernandez, A. A.; Cheng, J.; Gwaltney, S. L., II; Roush, W. R.; Stierhof, Y. D.; Bogyo, M.; Steverding, D.; McKerrow, J. H. Active site mapping, biochemical properties and subcellular localization of rhodesain, the major cysteine protease of Trypanosoma • Falcipain 2: recombinantly expressed according to ref.: Pandey, K. C.; Wang, S. X.; Sijwali, P. S.; Lau, A. L.; McKerrow, J. H.; Rosenthal, P. J. The Plasmodium falciparum cysteine protease falcipain-2 captures its substrate, hemoglobin, via a unique motif. Proc. Natl. Acad. Sci. U.S.A. 2005, 102, 9138-9143. • b. Buffers: • Cathepsin B: 50 mM Tris-Puffer pH 6.5 mit 2 mM DTT, 5 mM EDTA, 200 mM NaCl, 0.005% Brij35 • Cathepsin L: 50 mM Tris-Puffer pH 6.5 mit 2 mM DTT, 5 mM EDTA, 200 mM NaCl, 0.005% Brij35 • Rhodesain: 50 mM Acetat-Puffer pH 5.5 mit 5 mM DTT, 5 mM EDTA, 200 mM NaCl, 0.005% Brij35 • Falcipain 2: 50 mM Acetat-Puffer pH 5.5 mit 5 mM DTT, 5 mM EDTA, 200 mM NaCl, 0.005% Brij35 • c. Substrates: • Cathepsin L: 6,25 µM Z-Phe-Arg-7-amino-4-methylcumarin, HCl von Bachem, Ex 380 nm, Em 460 nm • Cathepsin B: 100 µM Z-Phe-Arg-7-amino-4-methylcumarin, HCl von Bachem, Ex 380 nm, Em 460 nm • Rhodesain: 10µM Z-Phe-Arg-7-amino-4-methylcumarin, HCl von Bachem, Ex 380 nm, Em 460 nm • Falcipain 2: 25µM Z-Phe-Arg-7-amino-4-methylcumarin, HCl von Bachem, Ex 380 nm, Em 460 nm • Reference substance(s)/positive control(s): E64 • d. Solvent for inhibitors and substrates: DMSO 99,5% (GC) DC4540, Sigma • e. Measurement device: Tecan Fluorescence spectrophotometer infinite F200 Pro • f. Well plates: 96 well plates, Lia-Plate White, Greiner bio-one, flat bottom, high binding • g. Methodology: Substrates and inhibitor stock solutions are prepared in DMSO and diluted with the respective assay buffer (final DMSO concentration: […]). Enzyme stock solutions are diluted with assay buffer to yield a fluorescence increase of dF/min ≈ _20. Total volume: 200 µL (180 µL of assay buffer, 5 µL of enzyme solution, 10 µL of DMSO or inhibitor solution, 5 µL of substrate solution). Assays are started by the addition of substrate solution. Fluorescence increase is detected over a period of 10 - 30 min, depending on time dependent (30 min) or non-time dependent (10 min) inhibition. • h. Temp: 25 °C • i. DATA-[…] • Software: Grafit 5.013 • Ki values are calculated from IC50 values (obtained by the 4-parameter IC50 equation) using the Chen-Prusoff equation: Ki=IC50/(1 + [S]/Km)
(§4) In vitro inhibition of cysteine-proteases cruzain (CR) (Trypanosoma cruzi (T. cruzi)), rhodesain (RD) (T. brucei), cathepsin B (CB), falcipain (FP2) (Plasmodium falciparum) and cathepsin L (CL) was assessed by quantification of the resulting fluorescence emission of the proteolytic breakdown of synthetic compound Z-Phe-Arg-AMC (Bachem). The results of this determination are shown in tables 1 and 2 illustrated above.

Rhodesain = molecular target: T2, Rhodesain (Trypanosoma brucei rhodesiense, UniProt Q95PM0); experiment: Protease assay, fluorogenic substrate Z-Phe-Arg-AMC: Rhodesain; type: biochemical; conditions: for IC50: RD=Rhodesain, 25 °C, pH 5.5, 10µM substrate
T2 construct: made in house
Excerpt: as §1, §2, §3, §4

cruzain (CR) = cruzain (CR) (Trypanosoma cruzi, UniProt P25779); experiment: In vitro inhibition of cruzain, fluorescence of Z-Phe-Arg-AMC breakdown; type: biochemical
Experimental: as §2, §4

Cathepsin B (human) = molecular target: T3, Cathepsin B (human) (Homo sapiens, UniProt P07858); experiment: Protease assay, fluorogenic substrate Z-Phe-Arg-AMC: Cathepsin B; type: biochemical
T3 construct: Cathepsin B (human liver) Calbiochem; purchased Calbiochem; host or cells: human liver (tissue-derived)
Excerpt: as §1, §2, §3, §4

[1] = tested on: P. falciparum NF54 strain; experiment: Activity against P. falciparum, 3H-hypoxanthine incorporation assay; type: cell-based; conditions: for IC50: Plasmodium falciparum
[2] = tested on: T. cruzi Tulahuen strain C2C4; experiment: Activity against T. cruzi in L-6 cells (beta-galactosidase, CPRG); type: cell-based; conditions: for IC50: Trypanosoma cruzi, TULAHUEN
Experimental: (§5) For all the susceptibility assays with parasites and cells, each drug was tested in duplicate and each assay was repeated at least once. • a. Activity against Trypanosoma brucei rhodesiense STIB900. This stock was isolated in 1982 from a human patient in Tanzania and after several mouse passages cloned and adapted to axenic culture conditions (Baltz et al 1985) Minimum Essential Medium (50 µl) supplemented with 25 mM HEPES, 1g/l additional glucose, 1% MEM non-essential amino acids (100x), 0.2 mM 2-mercaptoethanol, 1 mM Na-pyruvate and 15% heat inactivated horse serum was added to each well of a 96-well microtiter plate. Serial drug dilutions of eleven 3-fold dilution steps covering a range from 100 to 0.002 µg/ml were prepared. Then 4x10^3 bloodstream forms of T. b. rhodesiense STIB 900 in 50 µl was added to each well and the plate incubated at 37 °C under a 5 % CO2 atmosphere for 70 h. 10 µl Alamar Blue (resazurin, 12.5 mg in 100 ml double-distilled water) was then added to each well and incubation continued for a further 2-4 h (Raz et al 1997). Then the plates were read with a Spectramax Gemini XS microplate fluorometer (Molecular Devices Cooperation, Sunnyvale, CA, USA) using an excitation wave length of 536 nm and an emission wave length of 588 nm. The IC50 values were calculated by linear regression (Huber 1993) from the sigmoidal dose inhibition curves using SoftmaxPro software (Molecular Devices Cooperation, Sunnyvale, CA, USA). Melarsoprol (Arsobal Sanofi-Aventis, received from WHO) is used as control. • b. Activity against T. cruzi. Rat skeletal myoblasts (L-6 cells) were seeded in 96-well microtitre plates at 2000 cells/well in 100 µL RPMI 1640 medium with 10% FBS and 2 mM I-glutamine. After 24 h the medium was removed and replaced by 100 µl per well containing 5000 trypomastigote forms of T. cruzi Tulahuen strain C2C4 containing the β-galactosidase (Lac Z) gene (Buckner et al. 1996). After 48 h the medium was removed from the wells and replaced by 100 µl fresh medium with or without a serial drug dilution of eleven 3-fold dilution steps covering a range from 100 to 0.002 µg/ml. After 96 h of incubation the plates were inspected under an inverted microscope to assure growth of the controls and sterility. Then the substrate CPRG/Nonidet (50 µl) was added to all wells. A color reaction developed within 2-6 h and could be read photometrically at 540 nm. Data were analyzed with the graphic programme Softmax Pro (Molecular Devices), which calculated IC50 values by linear regression (Huber 1993) from the sigmoidal dose inhibition curves. […] Activity against L. donovani axenic amastigotes. Amastigotes of L. donovani strain MHOM/ET/67/L82 were grown in axenic culture at 37 °C in SM medium (Cunnigham et al. 1977) at pH 5.4 supplemented with 10% heat-inactivated fetal bovine serum under an atmosphere of 5% CO2 in air. One hundred microlitres of culture medium with 10^5 amastigotes from axenic culture with or without a serial drug dilution were seeded in 96-well microtitre plates. Serial drug dilutions of eleven 3-fold dilution steps covering a range from 90 to 0.002 µg/ml were prepared. After 70 h of incubation the plates were inspected under an inverted microscope to assure growth of the controls and sterile conditions. 10 µl of Alamar Blue (12.5 mg resazurin dissolved in 100 ml distilled water) (Mikus and Steverdig. 2000) were then added to each well and the plates incubated for another 2 h. Then the plates were read with a Spectramax Gemini XS microplate fluorometer (Molecular Devices Cooperation, Sunnyvale, CA, USA) using an excitation wave length of 536 nm and an emission wave length of 588 nm. Data were analyzed using the software Softmax Pro (Molecular Devices Cooperation, Sunnyvale, CA, USA). Decrease of fluorescence (= inhibition) was expressed as percentage of the fluorescence of control cultures and plotted against the drug concentrations. From the sigmoidal inhibition curves the IC50 values were calculated. • d.

Falcipain 2 = molecular target: T4, Falcipain 2 (Plasmodium falciparum, UniProt Q8I6U4); experiment: Protease assay, fluorogenic substrate Z-Phe-Arg-AMC: Falcipain 2; type: biochemical; conditions: FP2=Falcipain2
T4 construct: made in house
Excerpt: as §1, §2, §3, §4

[3] = tested on: Trypanosoma brucei rhodesiense STIB900; experiment: Activity against Trypanosoma brucei rhodesiense STIB900 (Alamar Blue); type: cell-based; conditions: for IC50: Trypanosoma brucei
Experimental: as §5

[4] = read-out: CL(IC50); CL=CathepsinL; 25 °C, pH 6.5, 6,25 µM substrate
[5] = read-out: CBIC50micM; CB=CathepsinB; 25 °C, pH 6.5, 100 µM substrate
[6] = CL=CathepsinL; 25 °C, pH 6.5, 6,25 µM substrate; read-out: CL(IC50)
[7] = CB=CathepsinB; 25 °C, pH 6.5, 100 µM substrate; read-out: CBIC50micM

cruzain (CR), sequence (P25779 123-467): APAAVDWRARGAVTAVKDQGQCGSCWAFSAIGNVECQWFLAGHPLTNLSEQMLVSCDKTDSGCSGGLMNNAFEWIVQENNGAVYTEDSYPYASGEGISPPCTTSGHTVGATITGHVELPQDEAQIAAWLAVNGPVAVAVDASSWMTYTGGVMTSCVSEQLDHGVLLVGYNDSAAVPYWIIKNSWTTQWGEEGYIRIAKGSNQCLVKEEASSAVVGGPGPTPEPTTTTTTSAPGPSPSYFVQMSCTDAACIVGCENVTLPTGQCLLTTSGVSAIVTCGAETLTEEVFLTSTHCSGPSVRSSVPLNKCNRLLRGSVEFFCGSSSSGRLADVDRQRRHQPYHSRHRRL
T2 sequence (Q95PM0 entry or part of it): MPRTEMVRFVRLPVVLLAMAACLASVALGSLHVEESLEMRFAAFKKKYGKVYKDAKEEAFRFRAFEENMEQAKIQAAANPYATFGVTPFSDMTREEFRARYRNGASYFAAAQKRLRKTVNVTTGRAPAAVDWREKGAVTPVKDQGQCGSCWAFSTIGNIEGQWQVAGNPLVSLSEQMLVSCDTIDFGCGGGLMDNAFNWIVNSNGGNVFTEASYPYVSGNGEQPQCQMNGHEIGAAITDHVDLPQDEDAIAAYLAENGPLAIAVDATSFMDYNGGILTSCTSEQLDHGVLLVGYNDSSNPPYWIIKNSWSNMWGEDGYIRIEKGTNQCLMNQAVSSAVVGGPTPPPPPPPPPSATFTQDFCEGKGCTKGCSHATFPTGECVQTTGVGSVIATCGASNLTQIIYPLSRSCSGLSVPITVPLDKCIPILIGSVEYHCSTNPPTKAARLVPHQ
T4 sequence (Q8I6U4 244-484): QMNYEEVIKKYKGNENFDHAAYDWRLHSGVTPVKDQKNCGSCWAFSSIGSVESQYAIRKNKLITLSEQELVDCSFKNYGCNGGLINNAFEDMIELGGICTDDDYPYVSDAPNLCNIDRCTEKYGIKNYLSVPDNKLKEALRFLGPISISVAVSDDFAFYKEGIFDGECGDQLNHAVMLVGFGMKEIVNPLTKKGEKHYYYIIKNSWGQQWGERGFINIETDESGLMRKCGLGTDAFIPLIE
T1 sequence (P07711 114-333): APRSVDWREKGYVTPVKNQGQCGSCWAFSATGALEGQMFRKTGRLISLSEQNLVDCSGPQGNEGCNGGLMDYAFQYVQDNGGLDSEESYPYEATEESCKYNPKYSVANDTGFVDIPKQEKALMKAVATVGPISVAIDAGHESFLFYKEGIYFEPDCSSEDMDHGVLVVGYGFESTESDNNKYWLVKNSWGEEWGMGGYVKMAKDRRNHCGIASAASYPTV

Compound | CL(K2nd(M-1s-1)) (Cathepsin L (human); CL=CathepsinL) [M⁻¹ s⁻¹] | RD(K2nd(M-1s-1)) (Rhodesain) [M⁻¹ s⁻¹] | IC50 (Rhodesain) [nM] | CR(K2nd(M-1s-1)) (cruzain (CR)) [M⁻¹ s⁻¹] | IC50 (cruzain (CR)) [nM] | CB(K2nd(M-1s-1)) (Cathepsin B (human); CB=CathepsinB) [M⁻¹ s⁻¹] | IC50 (Cathepsin L (human); [6]) [nM] | FP2(K2nd(M-1s-1)) (Falcipain 2) | further results
CCOC(=O)/C=C/C(=O)[C@H](CC(C)C)NC(=O)[C@H](Cc1ccccc1)NC(=O)OCc1ccccc1 | 758621 | 1611111 | 16.4 | 516667 | 16.2 | 138462 |  |  | IC50 (Cathepsin L (human); [4]): 9.6 nM; IC50 (Cathepsin B (human); [5]): 53 nM
CCOC(=O)/C=C/[C@@H](O)[C@H](CCc1ccccc1)NC(=O)[C@H](Cc1ccccc1)NC(=O)N1CCOCC1 | 1860 | 36735 | 1130 | 3615 | 3750 | 4190 | 2450 |  | IC50 (Cathepsin B (human); [7]): 1130 nM
CCN(CC)CCCC(C)Nc1ccnc2cc(Cl)ccc12 (stereo not shown) [Chloroquine, reference compound] |  |  |  |  |  |  |  |  | IC50 ([1]; NF54, read-out: P.falc NF54 IC50 mean, mean of replicates): 3 ng/mL (≈ 0.00938 µM); IC50 ([1]; NF54, read-out: P.falc NF54 IC50 repl1, replicate 1, erythrocytic stages, NF54): 3 ng/mL (≈ 0.00938 µM); IC50 ([1]; NF54, read-out: P.falc NF54 IC50 repl2, replicate 2, erythrocytic stages, NF54): 2 ng/mL (≈ 0.00625 µM); P.falc NF54 IC50 repl1 ([1]; replicate 1, erythrocytic stages, NF54): 0,002 micrograms/mL
O=C(Cn1ccnc1[N+](=O)[O-])NCc1ccccc1 [Benznidazole] |  |  |  |  |  |  |  |  | IC50 ([2]; L6, 96 h, replicate 1, L-6 cells, 96 h, read-out: T.cruzi. IC50 repl1): 657 ng/mL (≈ 2.52 µM); IC50 ([2]; L6, 96 h, replicate 2, L-6 cells, 96 h, read-out: T.cruzi. IC50 repl2): 522 ng/mL (≈ 2.01 µM); IC50 ([2]; L6, control value stated in the method text): 500 ± 200 ng/mL (≈ 1.92 µM); IC50 ([2]; L6, mean of replicates, read-out: T.cruzi. IC50 mean): 590 ng/mL (≈ 2.27 µM); T.cruzi. IC50 mean ([2]; mean of replicates): 0,516 micrograms/mL; T.cruzi. IC50 repl1 ([2]; replicate 1, L-6 cells, 96 h): 0,367 micrograms/mL; T.cruzi. IC50 repl2 ([2]; replicate 2, L-6 cells, 96 h): 0,664 micrograms/mL
CCOC(=O)/C=C/[C@@H](O)[C@H](C)NC(=O)[C@H](Cc1ccccc1)NC(=O)OCc1ccccc1 | 828 | 10951 | 45100 |  |  |  | 14300 | 2,735 M-1s-1 | 
CCOC(=O)/C=C/C(=O)[C@H](CCc1ccccc1)NC(=O)[C@H](Cc1ccccc1)NC(=O)OCc1ccccc1 [drawing 38] | 45364 | 1274510 | 30.7 |  |  | 45486 | 50 | 17099 M⁻¹ s⁻¹ | IC50 (Cathepsin B (human); [7]): 70 nM
O=C(O)/C=C/[C@@H](O)[C@H](CCc1ccccc1)NC(=O)[C@H](Cc1ccccc1)NC(=O)OCc1ccccc1 | 882 |  |  |  |  |  | 20000 | 29 M⁻¹ s⁻¹ | 
CC(C)C[C@H](NC(=O)[C@H](Cc1ccccc1)NC(=O)OCc1ccccc1)C(=O)/C=C/S(=O)(=O)c1ccccc1 | 383272 | 1361750 | 6 | 709411 | 11.1 | 82248 |  |  | IC50 (Cathepsin L (human); [4]): 9.95 nM; IC50 (Cathepsin B (human); [5]): 50 nM
CCOC(=O)C=CC(O)C(CCc1ccccc1)NC(=O)C(Cc1ccccc1)NC(=O)OCc1ccccc1 (single isomer, unassigned) | 77 |  |  |  |  | 14 |  |  | 
Nc1nc(N)nc(Nc2ccc([As]3SCC(CO)S3)cc2)n1 (stereo not shown) [Melarsoprol, reference compound] |  |  |  |  |  |  |  |  | IC50 ([3]; 70 h, read-out: T.b.rhod. IC50 repl1, replicate 1, bloodstream forms, 70 h): 5 ng/mL; IC50 ([3]; 70 h, read-out: T.b.rhod. IC50 repl2, replicate 2, bloodstream forms, 70 h): 2 ng/mL; IC50 ([3]; read-out: T.b.rhod. IC50 mean, mean of replicates): 3 ng/mL; T.b.rhod. IC50 mean ([3]; mean of replicates): 0,004 micrograms/mL; T.b.rhod. IC50 repl1 ([3]; replicate 1, bloodstream forms, 70 h): 0,003 micrograms/mL; T.b.rhod. IC50 repl2 ([3]; replicate 2, bloodstream forms, 70 h): 0,004 micrograms/mL
